Some test systems named below: HCC-2998 colon; SF-539 CNS; SF-295 CNS; SNB-19 CNS; A498 renal; OVCAR-3 ovarian; 786-0 renal; UO-31 renal; UACC-62 melanoma.
Assay in all cases: NCI anticancer screen, dose series, 48 h

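48-hour exposure; five concentrations; linearly interpolated endpoints. GI50 is the concentration that inhibits growth by half. TGI: total growth inhibition.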

The values below come from PubChem BioAssay (NCI).

With `O=C(Nc1ccc(Cl)cc1C(=O)O)c1ccc([N+](=O)[O-])cc1`, the TGI with HCC-2998 colon was 39.6 µM; in the assay with SF-539 CNS, 37.5 µM; in the assay with SF-295 CNS, 51.1 µM; in the assay with SNB-19 CNS, over 100 µM; with A498 renal, 27.2 µM; with OVCAR-3 ovarian it was 56.6 µM. For the same compound, the TGI in the assay on 786-0 renal was found to be 34.1 µM; in the assay with UO-31 renal, 44.1 µM; with UACC-62 melanoma, 45.6 µM.

`CC(C)COC1Sc2ccccc2S1`: the TGI came to 45.3 µM with HCC-2998 colon; 31.3 µM in the assay with SF-295 CNS; 32.8 µM in the assay with SNB-19 CNS; 34.2 µM in the assay on OVCAR-3 ovarian; 50 µM in the assay with 786-0 renal; 29.4 µM in the assay with UO-31 renal. In the assay on UACC-62 melanoma, this compound displayed a TGI of 25.8 µM.

Regarding `CCOC(=N)CC(=O)Nc1ccccc1`, the TGI is over 31.6 µM in the assay on HCC-2998 colon; over 46.4 µM with SF-539 CNS; over 100 µM with SF-295 CNS; over 100 µM in the assay with SNB-19 CNS; over 46.4 µM in the assay with A498 renal; over 31.6 µM with OVCAR-3 ovarian. The TGI was over 46.4 µM with 786-0 renal, over 46.4 µM in the assay with UO-31 renal and over 100 µM in the assay with UACC-62 melanoma.

`N#C/C(=C1\OC(=N)C(c2ccccc2)C1=O)c1ccccc1` (stereo not drawn): the TGI is over 100 µM with HCC-2998 colon; over 31.6 µM in the assay on SF-539 CNS; over 100 µM in the assay with SF-295 CNS; over 100 µM in the assay on SNB-19 CNS; over 100 µM in the assay with A498 renal; over 67.7 µM in the assay with OVCAR-3 ovarian. The TGI in the assay with 786-0 renal is over 56.8 µM; in the assay with UO-31 renal, 42.8 µM; in the assay on UACC-62 melanoma it was 52.7 µM.

For the compound `C[N+](C)(C)c1cc[c]([Sn]([c]2ccc([N+](C)(C)C)cc2)([c]2ccc([N+](C)(C)C)cc2)[c]2ccc([N+](C)(C)C)cc2)cc1`, the GI50 with HCC-2998 colon, in the assay with SF-539 CNS, with SF-295 CNS, in the assay on SNB-19 CNS, in the assay with A498 renal and in the assay on OVCAR-3 ovarian was over 100 µM in each case. Besides, the GI50 in the assay on 786-0 renal, in the assay with UO-31 renal and in the assay with UACC-62 melanoma was over 100 µM each time. In addition, the TGI in the assay on HCC-2998 colon, with SF-539 CNS, with SF-295 CNS, in the assay on SNB-19 CNS, with A498 renal and in the assay with OVCAR-3 ovarian was over 100 µM in each case. Moreover, the TGI in the assay with 786-0 renal, in the assay with UO-31 renal and with UACC-62 melanoma was over 100 µM each time.

As for `CC1C=CC(C(N)C(=O)O)O1` (stereo not drawn), the TGI in the assay on HCC-2998 colon, with SF-539 CNS, with SF-295 CNS, in the assay with SNB-19 CNS, in the assay on A498 renal and in the assay with OVCAR-3 ovarian was over 100 µM in each case. The TGI in the assay with 786-0 renal, in the assay on UO-31 renal and in the assay with UACC-62 melanoma was over 100 µM each time.

For `CC1=CP(=O)(c2ccccc2)C=C(C)C1=C(Cl)Cl` (stereo not drawn), the TGI in the assay with HCC-2998 colon came out at 29.8 µM; in the assay with SF-539 CNS, 88.6 µM; with SF-295 CNS, 34.6 µM; in the assay with SNB-19 CNS it was 32.8 µM; in the assay with OVCAR-3 ovarian, 30.9 µM; with 786-0 renal, 16.5 µM. The compound also registered a TGI in the assay on UACC-62 melanoma of 21.7 µM.

As for `O=C(CC1C(=O)Nc2ccccc2S1(=O)=O)Nc1ccc(Cl)cc1` (stereo not drawn), the TGI was 39.6 µM in the assay on HCC-2998 colon; 29.7 µM in the assay with SF-539 CNS; over 100 µM in the assay with SF-295 CNS; 57.1 µM with SNB-19 CNS; over 100 µM in the assay on A498 renal; 39.4 µM in the assay with OVCAR-3 ovarian. The TGI with 786-0 renal is 38.7 µM; in the assay on UO-31 renal it was 66.9 µM; in the assay on UACC-62 melanoma, over 100 µM.

Consider `O=C(N/C(=C\c1ccccc1O)c1nc2ccccc2[nH]1)c1ccccc1`, for which the TGI in the assay on HCC-2998 colon, with SF-539 CNS, in the assay with SNB-19 CNS, in the assay with A498 renal, in the assay on OVCAR-3 ovarian and in the assay with 786-0 renal was over 100 µM in each case. Further, the TGI with UO-31 renal and in the assay on UACC-62 melanoma was over 100 µM in each case.

As to `COc1cc2ncnc(Nc3ccc(Oc4ccnc(C)c4)c(C)c3)c2cc1NC(=O)CC1CCSS1` (stereo not drawn), the GI50 in the assay on SF-539 CNS is 1.29 µM; with SNB-19 CNS, 1.08 µM; in the assay on A498 renal it was 7.94 µM; with OVCAR-3 ovarian, 0.853 µM; in the assay with 786-0 renal, over 50 µM; with UO-31 renal, 0.853 µM. Besides, the GI50 with UACC-62 melanoma was 1.26 µM. In addition, the TGI is over 10.7 µM in the assay on SF-539 CNS; 2.49 µM in the assay with SNB-19 CNS; 22.8 µM in the assay with A498 renal; 1.6 µM in the assay with OVCAR-3 ovarian; over 50 µM in the assay on 786-0 renal; 2.83 µM with UO-31 renal. The TGI in the assay on UACC-62 melanoma was found to be 3.71 µM.

`CCCCNC(=S)OCCC(C)CCCC(C)C` (stereo not drawn): the TGI with HCC-2998 colon, with SF-539 CNS, in the assay with SF-295 CNS, with SNB-19 CNS, with A498 renal and in the assay on 786-0 renal was over 100 µM each time. Further, the TGI in the assay on UO-31 renal and with UACC-62 melanoma was over 100 µM throughout.

On to `COc1ccc(O)cc1C(O)c1ccccc1` (stereo not drawn), for which the TGI in the assay on HCC-2998 colon, in the assay with SF-539 CNS, in the assay on SF-295 CNS, with SNB-19 CNS, in the assay with A498 renal and with OVCAR-3 ovarian was over 100 µM each time. Further, the TGI in the assay with 786-0 renal, in the assay on UO-31 renal and in the assay on UACC-62 melanoma was over 100 µM each time.

As for `Nc1nc2c(-c3ccc([N+](=O)[O-])cc3)nnn2c2ccccc12`, the TGI was over 100 µM in the assay on HCC-2998 colon; over 100 µM in the assay with SF-539 CNS; over 100 µM in the assay on SF-295 CNS; over 100 µM in the assay with SNB-19 CNS; over 100 µM in the assay with A498 renal; 95.3 µM in the assay on OVCAR-3 ovarian. Further, the TGI with 786-0 renal, in the assay with UO-31 renal and in the assay with UACC-62 melanoma was over 100 µM each time.

For `O=C(N=c1nc(NC(=O)c2ccccc2)ss1)c1ccccc1`, the TGI was over 100 µM in the assay on HCC-2998 colon; 37.9 µM in the assay with SF-539 CNS; 70.6 µM in the assay with SF-295 CNS; over 100 µM in the assay on SNB-19 CNS; 87.6 µM in the assay on A498 renal; 55.7 µM with OVCAR-3 ovarian. The TGI in the assay on 786-0 renal is over 100 µM; with UO-31 renal, 62.8 µM.
